Each structure is given as a SMILES string.

The term melting point denotes the temperature of the solid-liquid transition. Turning to `Cc1ncccc1Oc1ccc(NC(=O)N2CCc3ccc(-n4c(C)ccc4C)cc3CC2)cn1` [Example 2, 7-(2,5-Dimethyl-1H-pyrrol-1-yl)-N-{6-[(2-methylpyridin-3-yl)oxy]pyridin-3-yl}-1,2,4,5-tetrahydro-3H-3-benzazepine-3-carboxamide], the melting point was 101 °C (dec.).
With `O=C(NC1CCCNC1)N1CCc2ccccc2CC1` (stereo not shown) [Example 17, N-Piperidin-3-yl-1,2,4,5-tetrahydro-3H-3-benzazepine-3-carboxamide], the melting point is 214 to 216 °C.
Take `CC(C)Oc1ccccc1Oc1ccc(NC(=O)N2CCc3ccccc3CC2)cn1` [Example 12, N-[6-(2-isopropoxyphenoxy)pyridin-3-yl]-1,2,4,5-tetrahydro-3H-3-benzazepine-3-carboxamide]: the melting point lay in the range of 149 to 152 °C.
In turn, `Cc1cc(Oc2ccc(NC(=O)N3CCc4ccccc4CC3)cn2)cc(C)c1Cl` [Example 16, N-[6-(4-Chloro-3,5-dimethylphenoxy)pyridin-3-yl]-1,2,4,5-tetrahydro-3H-3-benzazepine-3-carboxamide] showed a melting point of 208 to 209 °C.
`Cc1cc(Cl)ccc1Oc1ccc(NC(=O)N2CCc3ccccc3CC2)cn1` [Example 13, N-[6-(2-Methyl-4-chlorophenoxy)pyridin-3-yl]-1,2,4,5-tetrahydro-3H-3-benzazepine-3-carboxamide] returned a melting point of 151 to 153 °C.
Compound `O=C(Nc1ccc(Oc2ccccc2F)nc1)N1CCc2ccccc2CC1` [Example 11, N-[6-(2-Fluorophenoxy)pyridin-3-yl]-1,2,4,5-tetrahydro-3H-3-benzazepine-3-carboxamide] displayed a melting point of 170 to 172 °C.
Compound `Cc1cc(Oc2ccc(NC(=O)N3CCc4ccccc4CC3)cn2)ccc1Cl` [Example 14, N-[6-(3-Methyl-4-chlorophenoxy)pyridin-3-yl]-1,2,4,5-tetrahydro-3H-3-benzazepine-3-carboxamide] came in with a melting point of 171 to 173 °C.
`COc1ccc(Oc2ccc(NC(=O)N3CCc4ccccc4CC3)cn2)cc1` [Example 9, N-[6-(4-Methoxyphenoxy)pyridin-3-yl]-1,2,4,5-tetrahydro-3H-3-benzazepine-3-carboxamide] registered a melting point of 156 to 157 °C.
As to `O=C(Nc1cccnc1Cl)N1CCc2ccccc2CC1` [Example 6, N-[2-Chloropyridin-3-yl]-1,2,4,5-tetrahydro-3H-3-benzazepine-3-carboxamide], the melting point is 120 to 122 °C.
As for `O=C(NC1CN2CCC1CC2)N1CCc2ccccc2CC1` (stereo not shown), the melting point was > 120 °C (dec.).
Compound `O=C(N[C@@H]1CN2CCC1CC2)N1CCc2ccccc2CC1` gave a melting point of 128 to 132 °C.
For `O=C(Nc1ccc(Cl)nc1)N1CCc2ccccc2CC1` [Example 7, N-(6-chloropyridin-3-yl)-1,2,4,5-tetrahydro-3H-3-benzazepine-3-carboxamide] the value was 170 to 172 °C; for `O=C(Nc1ccc(Oc2ccc(Cl)cc2Cl)nc1)N1CCc2ccccc2CC1` [Example 15, N-[6-(2,4-Dichlorophenoxy)pyridin-3-yl]-1,2,4,5-tetrahydro-3H-3-benzazepine-3-carboxamide], 154 to 155 °C.
Consider `Cc1ncccc1Oc1ccc(NC(=O)N2CCc3ccccc3CC2)cn1` [Example 1, N-{6-[(2-methylpyridin-3-yl)oxy]pyridin-3-yl}-1,2,4,5-tetrahydro-3H-3-benzazepine-3-carboxamide], for which the melting point was in the range of 171 to 173 °C.
Take `O=C(Nc1cccnc1)N1CCc2ccccc2CC1` [Example 5, 1,2,4,5-Tetrahydro-benzo[d]azepine-3-carboxylic acid pyridin-3-ylamide]: the melting point was in the range of 144 to 146 °C.
`O=C(Nc1ccc(Oc2ccc(Cl)cc2)nc1)N1CCc2ccccc2CC1` [Example 10, N-[6-(4-Chlorophenoxy)pyridin-3-yl]-1,2,4,5-tetrahydro-3H-3-benzazepine-3-carboxamide] came in with a melting point of 135 to 137 °C.

Values taken from US6861420B2, “N-substituted 1,2,4,5-tetrahydro-1H-benzo[d]azepine compounds” (Pharmacia & Upjohn Company, priority 2001, dated 2005).
